Row | SMILES | melting point
1 | OC[C@H]1O[C@@H](n2cnc3c(NC4CCCN(c5ccc(C(F)(F)F)cn5)C4)ncnc32)[C@H](O)[C@@H]1O (stereo partly drawn) [Example 13, (2R,3R,4S,5R)-5-hydroxymethyl-2-[6-(5′-trifluoromethyl-3,4,5,6-tetrahydro-2H-[1,2′]-bipyridinyl-3-ylamino)-purin-9-yl]tetrahydrofuran-3,4-diol] | 113 to 116 °C
2 | O=[N+]([O-])c1ccc(N2CC[C@H](Nc3ncnc4c3ncn4[C@@H]3O[C@H](CO)[C@@H](O)[C@H]3O)C2)cc1 [Example 12, (2R,3R,4S,5R)-5-hydroxymethyl-2-(6-(1-(4-nitrophenyl)-pyrrolidin-3(S)-ylamino)-purin-9-yl) tetrahydrofuran-3,4-diol] | 230 to 232 °C
3 | OC[C@H]1O[C@@H](n2cnc3c(N[C@H]4CCN(c5ccc(Cl)cc5)C4)ncnc32)[C@H](O)[C@@H]1O [Example 16, (2R,3R,4S,5R)-5-hydroxymethyl-2-[6-[1-(4-chlorophenyl)-pyrrolidin-3(S)-ylamino]-purin-9-yl]-tetrahydrofuran-3,4-diol] | 121 to 124 °C
4 | OC[C@H]1C[C@@H](n2cnc3c(N[C@H]4CCN(c5cnc6ccccc6c5)C4)ncnc32)[C@H](O)[C@@H]1O [Example 36, (1R,2S,3R,5R)-5-hydroxymethyl-3-[6-[1-(quinolin-3-yl)pyrrolidin-3(S)-ylamino]-purin-9-yl]cyclopentane-1,2-diol] | 135 to 138 °C
5 | COC[C@H]1O[C@@H](n2cnc3c(N[C@H]4CCN(c5ccc(C(F)(F)F)cn5)C4)ncnc32)[C@H](O)[C@@H]1O [Example 23, (2R,3R,4S,5R) -5-methoxymethyl-2-[6-[1-(5-trifluoromethylpyridin-2-yl)-pyrrolidin-3(S)-ylamino]-purin-9-yl]tetrahydrofuran-3,4-diol] | 198 to 200 °C
6 | OC[C@H]1O[C@@H](n2cnc3c(N[C@H]4CCN(c5cc(C(F)(F)F)ccn5)C4)ncnc32)[C@H](O)[C@@H]1O [Example 10, (2R,3R,4S,5R)-5-hydroxymethyl-2-[6-[1-(4-trifluoromethylpyridin-2-yl)-pyrrolidin-3(S)-ylamino]-purin-9-yl]tetrahydrofuran-3,4-diol] | 187 to 190 °C
7 | OC[C@H]1O[C@@H](n2cnc3c(N[C@H]4CCN(c5ccccn5)C4)ncnc32)[C@H](O)[C@@H]1O [Example 15, (2R,3R,4S,5R)-5-hydroxymethyl-2-[6-(1-pyridin-2-ylpyrrolidin-3(S)-ylamino]-purin-9-yl]tetrahydrofuran-3,4-diol] | 193 to 195 °C
8 | Cc1ccc(N2CC[C@H](Nc3ncnc4c3ncn4[C@@H]3O[C@H](CO)[C@@H](O)[C@H]3O)C2)nc1 [Example 17, (2R,3R,4S,5R)-5-hydroxymethyl-2-[6-[1-(5-methylpyridin-2-yl)-pyrrolidin-3(S)-ylamino]-purin-9-yl]tetrahydrofuran-3,4-diol] | 164 to 166 °C
9 | CSc1ccc(N2CC[C@H](Nc3ncnc4c3ncn4[C@@H]3O[C@H](CO)[C@@H](O)[C@H]3O)C2)nc1 [Example 19, (2R,3R,4S,5R)-5-hydroxymethyl-2-[6-[1-(5-methylmercaptopyridin-2-yl)-pyrrolidin-3(S)-ylamino]-purin-9-yl]tetrahydrofuran-3,4-diol] | 231 to 233 °C
10 | OC[C@H]1C[C@@H](n2cnc3c(N[C@@H]4CCNC4)ncnc32)[C@H](O)[C@@H]1O [Example 28, (1R,2S,3R,5R)-5-hydroxymethyl-3-[6-((3R)-pyrrolidin-3-ylamino)-purin-9-yl]cyclopentane-1,2-diol] | 166 °C (dec.)
11 | O=[N+]([O-])c1ccc(N2CCC(Nc3ncnc4c3ncn4[C@@H]3C[C@H](CO)[C@@H](O)[C@H]3O)CC2)cc1 [Example 25, (1R,2S,3R,5R)-5-hydroxymethyl-3-[6-[1-(4-nitrophenyl)piperidin-4-ylamino]-purin-9-yl]cyclopentane-1,2-diol] | 126 to 128 °C
12 | OC[C@H]1O[C@@H](n2cnc3c(N[C@@H]4CCN(c5ccc(C(F)(F)F)cn5)C4)ncnc32)[C@H](O)[C@@H]1O (hydrate or solvate) [Example 4, (2R,3R,4S,5R)-5-hydroxymethyl-2-[6-[1-(5-trifluoromethylpyridin-2-yl)-pyrrolidin-3(R)-ylamino]purin-9-yl]tetrahydrofuran-3,4-diol] | 166 to 170 °C
13 | OC[C@H]1O[C@@H](n2cnc3c(N[C@H]4CCN(c5ccc(Cl)cn5)C4)ncnc32)[C@H](O)[C@@H]1O [Example 8, (2R,3R,4S,5R)-5-hydroxymethyl-2-[6-[1-(5-chloropyridin-2-yl)-pyrrolidin-3(S)-ylamino]-purin-9-yl]-tetrahydrofuran-3,4-diol] | 154 to 156 °C

Now from value to compound:

Row | melting point | SMILES
14 | 106 °C | COC[C@H]1C[C@@H](n2cnc3c(N[C@H]4CCN(c5ccccc5)C4)ncnc32)[C@H](O)[C@@H]1O [Example 58, (1R,2S,3R,5R)-5-methoxymethyl-3-[6-[1-phenylpyrrolidin-3-(S)-ylamino]-purin-9-yl]cyclopentan-1,2-diol]
15 | 95 to 96 °C | COC[C@H]1C[C@@H](n2cnc3c(N[C@H]4CCN(Cc5ccccc5)C4)ncnc32)[C@H](O)[C@@H]1O [Example 60, (1R,2S,3R,5R)-3-[6-(1-benzyl-pyrrolidin-3(S)-ylamino)purin-9-yl]-5-methoxymethylcyclopentane-1,2-diol]
16 | 118 to 120 °C | COC[C@H]1C[C@@H](n2cnc3c(N[C@H]4CCN(c5cc(OC)ncn5)C4)ncnc32)[C@H](O)[C@@H]1O [Example 48, (1R,2S,3R,5R)-5-methoxymethyl-3-[6-[1-(6-methoxypyrimidin-4-yl)pyrrolidin-3(S)-ylamino]-purin-9-yl]cyclopentane-1,2-diol]
17 | 206 to 212 °C (dec.) | CC[C@@H](C)NC(=O)[C@H]1C[C@@H](n2cnc3c(N[C@H]4CCN(c5ccc(C(F)(F)F)cn5)C4)ncnc32)[C@H](O)[C@@H]1O [Example 62, (1S,2R,3S,4R)-2,3-dihydroxy-4-{6-[1-(5-trifluoromethyl-pyridin-2-yl)-pyrrolidin-3(S)-ylamino]-purin-9-yl}-cyclopentanecarboxylic acid-1(R)-methylpropylamide]
18 | 100 to 102 °C | OC[C@H]1C[C@@H](n2cnc3c(N[C@H]4CCN(Cc5ccccc5)C4)ncnc32)[C@H](O)[C@@H]1O [Example 59, (1R,2S,3R,5R)-3-[6-(1-benzyl-pyrrolidin-3(S)-ylamino)purin-9-yl]-5-hydroxymethylcyclopentane-1,2-diol]
19 | 157 to 158 °C | CC(C)OC[C@H]1C[C@@H](n2cnc3c(N[C@H]4CCN(c5ccc(C(F)(F)F)cn5)C4)ncnc32)[C@H](O)[C@@H]1O [Example 49, (1R,2S,3R,5R)-5-isopropoxymethyl-3-[6-[1-(5-trifluoromethylpyridin2-yl)pyrrolidin-3(S)-ylamino]-purin-9-yl]cyclopentane-1,2-diol]
20 | 180 to 182 °C | OC[C@H]1C[C@@H](n2cnc3c(N[C@H]4CCN(c5cc(Cl)ncn5)C4)ncnc32)[C@H](O)[C@@H]1O [Example 45, (1R,2S,3R,5R)-3-[6-[1-(6-chloropyrimidin-4-yl)pyrrolidin-3(S)-ylamino]-purin-9-yl]-5-hydroxymethylcyclopentane-1,2-diol]
